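Results reflect a 48-hour exposure of cells in 96-well plates to compound at five concentrations. At the GI50, growth is halved.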 Activity calls are given as the source filed them. Cut-off read from the data, not from the text of the source: active = GI50 up to about 1.1 µM and inactive = higher. Where a SMILES comes first, the peptide text is derived from it. [ ]: non-standard residue; d: D form. The star is where a group is joined. ξ: configuration not given here. ξPhe(4-NO2) = NC(Cc1ccc([N+](=O)[O-])cc1)C(=O)O; Boc = CC(C)(C)OC(=O)*; OBn = c1ccc(CO*)cc1
Columns and labels:
Assay in all cases: inhibition of tumour cell growth, NCI panel, 48 h
SW-620 = system: SW-620
UACC-257 = system: UACC-257
SF-295 = system: SF-295
SK-MEL-5 = system: SK-MEL-5
HL-60 = system: HL-60
SF-539 = system: SF-539
SK-MEL-28 = system: SK-MEL-28
OVCAR-5 = system: OVCAR-5
MDA-N = system: MDA-N
HT-29 = system: HT-29
SN12C = system: SN12C
UACC-62 = system: UACC-62
SK-OV-3 = system: SK-OV-3
HCC 2998 = system: HCC 2998
LOX IMVI = system: LOX IMVI
SR = system: SR
IGROV-1 = system: IGROV-1
HOP-62 = system: HOP-62
CAKI-1 = system: CAKI-1
DU-145 = system: DU-145
KM12 = system: KM12
786-0 = system: 786-0
RXF 393 = system: RXF 393
NCI-H460 = system: NCI-H460
NCI-H226 = system: NCI-H226
MDA-MB-231 = system: MDA-MB-231
U-251 = system: U-251
OVCAR-4 = system: OVCAR-4
MCF7 = system: MCF7
A549 = system: A549
OVCAR-8 = system: OVCAR-8
MDA-MB-435 = system: MDA-MB-435
EKVX = system: EKVX
HCT-116 = system: HCT-116
SNB-75 = system: SNB-75
ACHN = system: ACHN
MOLT-4 = system: MOLT-4
NCI-H522 = system: NCI-H522
A498 = system: A498
HCT-15 = system: HCT-15
SF-268 = system: SF-268
K562 = system: K562
NCI/ADR-RES = system: NCI/ADR-RES
BT-549 = system: BT-549
HOP-92 = system: HOP-92
Malme-3M = system: Malme-3M
UO-31 = system: UO-31
CCRF-CEM = system: CCRF-CEM
NCI-H23 = system: NCI-H23
OVCAR-3 = system: OVCAR-3
TK-10 = system: TK-10
Hs-578T = system: Hs-578T
T47D = system: T47D
PC-3 = system: PC-3
RPMI-8226 = system: RPMI-8226
COLO 205 = system: COLO 205
SNB-19 = system: SNB-19
M14 = system: M14

In the case of `COC(=O)c1ccc2c(c1)CC1(C2)Cc2cc3c(c(C(=O)OC)c2C1)CCCC3` (configuration not stated), the GI50 (SW-620) is reported as > 100 µM (inactive), the GI50 (UACC-257) is reported as 48.4 µM (inactive) and the GI50 (SF-295) is reported as 50 µM (inactive). For the same compound, the GI50 (SK-MEL-5) was 21.2 µM (inactive), the GI50 (HL-60) was 31.5 µM (inactive) and the GI50 (SF-539) was > 100 µM (inactive). The GI50 (SK-MEL-28) was > 100 µM (inactive), the GI50 (OVCAR-5) was > 100 µM (inactive) and the GI50 (MDA-N) was 93.1 µM (inactive). For the same compound, the GI50 (HT-29) was 55.7 µM (inactive), the GI50 (SN12C) was 50.1 µM (inactive) and the GI50 (UACC-62) was 37.1 µM (inactive). The GI50 (SK-OV-3) was 41.7 µM (inactive), the GI50 (HCC 2998) was 86.5 µM (inactive) and the GI50 (LOX IMVI) was 51.4 µM (inactive). For the same compound, the GI50 (SR) was 69.5 µM (inactive), the GI50 (IGROV-1) was > 100 µM (inactive) and the GI50 (HOP-62) was > 100 µM (inactive). For the same compound, the GI50 (CAKI-1) was 28.8 µM (inactive), the GI50 (DU-145) was > 100 µM (inactive) and the GI50 (KM12) was > 100 µM (inactive). The GI50 (786-0) was 64.1 µM (inactive), the GI50 (RXF 393) was > 100 µM (inactive) and the GI50 (NCI-H460) was 96.6 µM (inactive). The GI50 (NCI-H226) was 96.8 µM (inactive), the GI50 (MDA-MB-231) was 64.3 µM (inactive) and the GI50 (U-251) was 61.7 µM (inactive). For the same compound, the GI50 (OVCAR-4) was 50.5 µM (inactive), the GI50 (MCF7) was 68.5 µM (inactive) and the GI50 (A549) was 83.9 µM (inactive). For the same compound, the GI50 (OVCAR-8) was > 100 µM (inactive), the GI50 (MDA-MB-435) was 84.1 µM (inactive) and the GI50 (EKVX) was 60 µM (inactive). For the same compound, the GI50 (HCT-116) was 44.6 µM (inactive), the GI50 (SNB-75) was 77.6 µM (inactive) and the GI50 (ACHN) was 47.8 µM (inactive). The GI50 (MOLT-4) was 42.7 µM (inactive), the GI50 (NCI-H522) was > 100 µM (inactive) and the GI50 (A498) was 32.5 µM (inactive). For the same compound, the GI50 (HCT-15) was 67.8 µM, the GI50 (SF-268) was > 100 µM (inactive) and the GI50 (K562) was 41.1 µM (inactive). The GI50 (NCI/ADR-RES) was 82.8 µM (inactive), the GI50 (BT-549) was > 10 µM (inactive) and the GI50 (HOP-92) was 22.4 µM (inactive). For the same compound, the GI50 (Malme-3M) was > 100 µM (inactive), the GI50 (UO-31) was > 100 µM (inactive) and the GI50 (CCRF-CEM) was 48.6 µM (inactive). For the same compound, the GI50 (NCI-H23) was 65.5 µM (inactive), the GI50 (OVCAR-3) was 18.3 µM (inactive) and the GI50 (TK-10) was 72.1 µM (inactive). The GI50 (Hs-578T) was > 100 µM (inactive), the GI50 (T47D) was 47.3 µM (inactive) and the GI50 (PC-3) was 54.1 µM (inactive). The GI50 (RPMI-8226) was 38.4 µM (inactive) and the GI50 (COLO 205) was 49.4 µM (inactive).
`CC(C)(C)OC(=O)NC(Cc1ccc([N+](=O)[O-])cc1)C(=O)NCC(=O)OCc1ccccc1` (configuration not stated) (Boc-[ξPhe(4-NO2)]-Gly-OBn) was tested, and the GI50 (SW-620) was 29.6 µM (inactive), the GI50 (SF-295) was 20.5 µM (inactive) and the GI50 (SNB-19) was 55.3 µM (inactive). The GI50 (SK-MEL-5) was 19.4 µM (inactive), the GI50 (HL-60) was 36.1 µM (inactive) and the GI50 (SK-MEL-28) was 24 µM (inactive). The GI50 (OVCAR-5) was > 100 µM (inactive), the GI50 (MDA-N) was 19.1 µM (inactive) and the GI50 (HT-29) was 25.5 µM (inactive). For the same compound, the GI50 (SN12C) was 20.7 µM (inactive), the GI50 (UACC-62) was 17 µM (inactive) and the GI50 (SK-OV-3) was 24.6 µM (inactive). The GI50 (HCC 2998) was 19.6 µM (inactive), the GI50 (LOX IMVI) was 14.1 µM (inactive) and the GI50 (SR) was 31.6 µM (inactive). The GI50 (IGROV-1) was > 100 µM (inactive), the GI50 (HOP-62) was 17.3 µM (inactive) and the GI50 (CAKI-1) was 13.1 µM (inactive). For the same compound, the GI50 (DU-145) was 30.1 µM (inactive), the GI50 (KM12) was 31.4 µM (inactive) and the GI50 (786-0) was 11.4 µM (inactive). For the same compound, the GI50 (RXF 393) was 22.2 µM (inactive), the GI50 (NCI-H460) was 21.9 µM (inactive) and the GI50 (NCI-H226) was 26.7 µM (inactive). The GI50 (MDA-MB-231) was 31.3 µM (inactive), the GI50 (U-251) was 20.7 µM (inactive) and the GI50 (OVCAR-4) was 25.9 µM (inactive). The GI50 (MCF7) was 28.2 µM (inactive), the GI50 (A549) was 47.4 µM (inactive) and the GI50 (OVCAR-8) was 22.2 µM (inactive). For the same compound, the GI50 (MDA-MB-435) was 16.9 µM (inactive), the GI50 (EKVX) was > 100 µM (inactive) and the GI50 (HCT-116) was 26.5 µM (inactive). The GI50 (SNB-75) was 18.4 µM (inactive), the GI50 (ACHN) was 23 µM (inactive) and the GI50 (MOLT-4) was 15 µM (inactive). For the same compound, the GI50 (NCI-H522) was 20.2 µM (inactive), the GI50 (A498) was 38.6 µM (inactive) and the GI50 (HCT-15) was 19.4 µM. The GI50 (SF-268) was 19.5 µM (inactive), the GI50 (K562) was 15 µM (inactive) and the GI50 (NCI/ADR-RES) was 42 µM (inactive). For the same compound, the GI50 (BT-549) was 25.7 µM (inactive), the GI50 (HOP-92) was 34 µM (inactive) and the GI50 (Malme-3M) was 23.8 µM (inactive). For the same compound, the GI50 (UO-31) was 23.9 µM (inactive), the GI50 (CCRF-CEM) was 13.9 µM (inactive) and the GI50 (NCI-H23) was 20.2 µM (inactive). The GI50 (OVCAR-3) was 19 µM (inactive), the GI50 (TK-10) was > 100 µM (inactive) and the GI50 (M14) was 19.5 µM (inactive). For the same compound, the GI50 (Hs-578T) was 22.3 µM (inactive), the GI50 (T47D) was 44.1 µM (inactive) and the GI50 (PC-3) was 17.2 µM (inactive). For the same compound, the GI50 (RPMI-8226) was 21 µM (inactive) and the GI50 (COLO 205) was 17.1 µM (inactive).
